US7132271B2, “Methods for enhancing the production of viral vaccines in cell culture” (priority 1995, dated 2006)

System: human PKR
Experiment: Western blot analysis of PKR protein in U937 transfectants
Assay type: cell-based
Conditions: U937-neo cells
Method: Cell extracts (100 μg) were separated on a 10% SDS-polyacrylamide gel and electrotransferred onto nitrocellulose membrane. The membranes were incubated with anti-PKR monoclonal antibody (Meurs et al. Cell 1990) at 1:1000 in BLOTTO (5% nonfat dry milk, 0.05% Tween-20 in Tris-buffered saline). Final detection of PKR was facilitated by probing with a secondary horseradish peroxidase-conjugated goat anti-mouse antibody (Santa Cruz Biotech) and using a chemiluminesence method (Amersham ECL).

IFN-γ: recombinant human IFN-γ, Amgen
PKR protein level following treatment with IFN: increased
